Experimental data: publication PMC9415116, “Regionally selective cardiovascular responses to adenosine A2A and A2B receptor activation” (The FASEB Journal, 2022)

Tests used:
[1] = target: T1, rat Nluc-A2BR (Rattus norvegicus, UniProt P29276, M1L); experiment: NanoBRET competition binding with CA200645, intact HEK293T cells; format: cell-based; conditions: for Ki: read-out: Nluc-rat A2B (pKD or pKi) (converted)
T1 construct: gene Adora2b; internal XhoI site removed (silent by primer); transient in intact HEK293T cells
T1 sequence (P29276 1-332 M1L): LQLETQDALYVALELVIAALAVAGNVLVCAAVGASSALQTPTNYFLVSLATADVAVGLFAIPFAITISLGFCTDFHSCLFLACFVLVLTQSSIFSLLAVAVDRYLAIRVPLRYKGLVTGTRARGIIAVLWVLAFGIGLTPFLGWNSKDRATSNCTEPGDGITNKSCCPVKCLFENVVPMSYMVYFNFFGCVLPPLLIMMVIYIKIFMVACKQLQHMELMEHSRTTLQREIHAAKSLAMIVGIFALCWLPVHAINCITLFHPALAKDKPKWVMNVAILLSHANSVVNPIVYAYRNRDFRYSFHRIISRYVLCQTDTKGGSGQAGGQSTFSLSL
Text: NanoBRET competition binding with CA200645, intact HEK293T cells on rat Nluc-A2BR

[2] = target: T2, rat Nluc-A2AR (Rattus norvegicus, UniProt P30543, M1L); experiment: as above; format: cell-based; conditions: read-out: Nluc-rat A2A (pKD or pKi) (converted)
T2 construct: gene Adora2a; internal BamHI site removed (silent by primer); transient in intact HEK293T cells
T2 sequence (P30543 whole entry M1L): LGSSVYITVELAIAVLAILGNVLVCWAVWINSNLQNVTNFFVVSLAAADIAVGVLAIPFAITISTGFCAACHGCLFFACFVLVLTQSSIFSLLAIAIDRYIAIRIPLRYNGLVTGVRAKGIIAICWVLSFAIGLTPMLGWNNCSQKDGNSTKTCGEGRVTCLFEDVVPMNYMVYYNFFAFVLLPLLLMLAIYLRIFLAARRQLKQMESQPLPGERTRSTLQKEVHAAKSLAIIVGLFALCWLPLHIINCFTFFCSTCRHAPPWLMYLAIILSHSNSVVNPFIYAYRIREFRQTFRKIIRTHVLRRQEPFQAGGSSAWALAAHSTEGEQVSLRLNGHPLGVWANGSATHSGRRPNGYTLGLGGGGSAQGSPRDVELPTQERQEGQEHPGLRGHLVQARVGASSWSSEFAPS
Text: NanoBRET competition binding with CA200645, intact HEK293T cells on rat Nluc-A2AR

Ki [1] [µM]	Ki [2] [µM]	Compound	Nluc-rat A2B (pKD or pKi) ([1]; […] CA200645, HBSS pH […] BSA, […] DMSO, […] °C, […] h, Cheng-Prusoff)
0.002	0.49	CCCn1c(=O)[nH]c2nc(-c3ccc(S(=O)(=O)N4CCN(c5ccc(Cl)cc5)CC4)cc3)[nH]c2c1=O [PSB 603]	
0.708		Nc1nc2c(cnn2CCc2ccccc2)c2nc(-c3ccco3)nn12 [SCH 58261, 2‐(2‐Furanyl)‐7‐(2‐phenylethyl)‐7H‐pyrazolo[4,3‐e][1,2,4]triazolo[1,5‐c]pyrimidin‐5‐amine]	
		N#Cc1c(N)nc(SCC(N)=O)c(C#N)c1-c1ccc(OCC2CC2)cc1 [BAY 60‐6583, 2‐[[6‐Amino‐3,5‐dicyano‐4‐[4‐(cyclopropylmethoxy)phenyl]‐2‐pyridinyl]thio]‐acetamide]	6.33 ± 0.03
0.537	2.88	CCCn1c(=O)[nH]c2nc(-c3ccc(S(=O)(=O)O)cc3)[nH]c2c1=O [PSB 1115, 4‐(2,3,6,7‐Tetrahydro‐2,6‐dioxo‐1‐propyl‐1H‐purin‐8‐yl)‐benzenesulfonic acid]	
